Data taken from patent US9433595B2, “Phytoestrogenic compositions for preventing or treating symptoms associated with menopause” (Natural Endotech Co., Ltd., priority 2008, dated 2016).

Test system: SaOS-2 cells
Test: Estrogen-specific ALP (alkaline phosphatase) induction in SaOS-2 osteoblast cells
Format: cell-based
Conditions: conclusion drawn from ALP induction in SaOS-2 cells
Method: To verify the effect of the compound of the present invention, non-reproductive tract target tissue response was carried out for measuring estrogenecity. […]
In this regard, the estrogenic activity of the compounds of the experimental groups as described above in the Example 1 was analyzed using SaOS-2 cells in this study.
For experiments, SaOS-2 cell line was purchased from Korean Type Culture Collection (KTCC). […] Thereafter, 50 μl of cell lysis buffer (100 mM Tris, 100 mM NaCl, 1 mM EDTA) was added to the culture media of each well and then, 150 μl of 30 mM p-nitrophenyl phosphate (Merk, Germany) was thoroughly mixed with shaking, followed by measuring the absorbance at 405 nm for 10 min at an interval of 50 sec. ALP induction was calculated as follows: % induction=[(Slopesample)/(Slope17β-estradiol)]×100. […]

SMILES	estrogenic activity
O=C(O)/C=C/c1ccccc1 [cinnamic acid]	remarkable estrogenic activity
COC(=O)C1=CO[C@@H](O[C@H]2O[C@@H](CO)[C@H](O)[C@@H](O)[C@@H]2O)C2C1[C@H](O)C[C@]2(C)O (some centres unmarked) [shanzhiside methylester]	remarkable estrogenic activity
